From patent US20260209234A1, “SUBSTITUTED DIHYDROPYRROLO[3,4-D]PYRIMIDINE COMPOUNDS AND THEIR USE IN TREATING MEDICAL CONDITIONS” (Karuna Therapeutics, Inc., priority 2022, published 2026) come the findings set out here.

One experiment concerns the target T1, rM4 receptors (Rattus norvegicus, UniProt P08485).
T1 construct: expressed in transfected cells; host or cells: CHO cells
T1 sequence (P08485 1-478): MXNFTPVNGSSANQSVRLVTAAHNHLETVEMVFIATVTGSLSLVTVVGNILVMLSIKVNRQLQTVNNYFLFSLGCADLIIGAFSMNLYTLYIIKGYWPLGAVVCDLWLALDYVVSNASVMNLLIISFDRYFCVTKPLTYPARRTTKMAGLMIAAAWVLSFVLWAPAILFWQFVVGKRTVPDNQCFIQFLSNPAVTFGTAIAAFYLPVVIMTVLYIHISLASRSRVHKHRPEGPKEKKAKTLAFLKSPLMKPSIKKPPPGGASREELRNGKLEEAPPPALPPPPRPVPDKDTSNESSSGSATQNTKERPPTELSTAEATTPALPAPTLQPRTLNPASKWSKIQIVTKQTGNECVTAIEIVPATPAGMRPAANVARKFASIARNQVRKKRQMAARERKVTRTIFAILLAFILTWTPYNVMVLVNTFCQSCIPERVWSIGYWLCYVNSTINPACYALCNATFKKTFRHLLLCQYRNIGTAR
Kind of experiment: Rat M4 PAM pERK assay. The experiment is classed as cell-based. As to conditions: CHO cells expressing rM4; EC20 of acetylcholine (10 nM final); TR-FRET. On the technique in general: Time-resolved FRET reads energy transfer from a long-lived donor to a nearby acceptor.

The test system of experiment [1] is Sprague Dawley rats pre-treated with amphetamine. Briefly: Amphetamine-evoked hyperlocomotion in rats. The experiment is classed as in vivo, rat. The conditions noted are these: male Sprague Dawley rats; 0.5 mg/kg amphetamine s.c.; open field, distance traveled. Here is the method: Animals: Adult male, Sprague Dawley rats (Envigo, Indianapolis, IN, USA) were housed in a colony maintained at 23° C. with 12 hour light/dark cycles (lights on at 0600 hour). All animals weighed 290-330 g at the beginning of the study and were equally divided into 5 groups (n=8 per group) and received one of the treatment conditions listed below. Animal protocols were approved by an Animal Care and Use Committee.
Behavioral Procedures: Studies were conducted in MedAssociates open field chambers (27.3 cm×27.3 cm×20.3 cm, MedAssociates, St. Albans, VT) in which movement was automatically tracked and recorded by 16 beam arrays. Administration pretreatment of the test article was determined to coincide with Tmax at the time of the amphetamine-evoked session with optimal route of administration. All groups were subcutaneously treated with 0.5 mg/kg amphetamine (AMP). […] Locomotor data (distance traveled) was recorded as 5-minute bins throughout the 90-minute session. […]
Statistical Analysis: Spontaneous locomotion (prior to AMP administration) was calculated as the total distance traveled during the first 30 minutes of the experimental session. AMP-evoked responses were calculated as the total distance traveled during the last 60 minutes of the experimental session which commenced immediately after AMP administration. Locomotor data were analyzed by a one-way ANOVA. […]

As for `COc1nc(C#N)nc2c1C(C)N(C(=O)CC1CN(c3ccnc(C(F)(F)F)c3)C1)C2` (single isomer, unassigned) [Compound I-6, 4-Methoxy-5-methyl-6-(2-(1-(2-(trifluoromethyl)pyridin-4-yl)azetidin-3-yl)acetyl)-6,7-dihydro-5H-pyrrolo[3,4-d]pyrimidine-2-carbonitrile], the EC50 (usually the concentration giving half of the maximal effect) at rM4 receptors was 0.1 to 0.5 µM. Besides, the “Dose Amount of Compound at which rats displayed a reduction in amphetamine-evoked hyperlocomotion activity” value in experiment [1] is given as more than 32 mg/kg.
Consider `COc1nc(C)nc2c1C(C)N(C(=O)CC1CN(c3ccnc(C(F)(F)F)c3)C1)C2` (single isomer, unassigned) [Compound I-52, 1-(4-Methoxy-2,5-dimethyl-5,7-dihydro-6H-pyrrolo[3,4-d]pyrimidin-6-yl)-2-(1-(2-(trifluoromethyl)pyridin-4-yl)azetidin-3-yl)ethan-1-one], for which the EC50 on rM4 receptors fell in the range of 0.1 to 0.5 µM. Besides, in experiment [1], the “Dose Amount of Compound at which rats displayed a reduction in amphetamine-evoked hyperlocomotion activity” value was determined as 32 mg/kg.
